Target: T1, fibroblast activation protein alpha (FAP) (Homo sapiens, UniProt Q12884)
T1 construct: human FAP expressed on HEK293 cells (HEK293-hFAP)
T1 sequence (Q12884 1-760): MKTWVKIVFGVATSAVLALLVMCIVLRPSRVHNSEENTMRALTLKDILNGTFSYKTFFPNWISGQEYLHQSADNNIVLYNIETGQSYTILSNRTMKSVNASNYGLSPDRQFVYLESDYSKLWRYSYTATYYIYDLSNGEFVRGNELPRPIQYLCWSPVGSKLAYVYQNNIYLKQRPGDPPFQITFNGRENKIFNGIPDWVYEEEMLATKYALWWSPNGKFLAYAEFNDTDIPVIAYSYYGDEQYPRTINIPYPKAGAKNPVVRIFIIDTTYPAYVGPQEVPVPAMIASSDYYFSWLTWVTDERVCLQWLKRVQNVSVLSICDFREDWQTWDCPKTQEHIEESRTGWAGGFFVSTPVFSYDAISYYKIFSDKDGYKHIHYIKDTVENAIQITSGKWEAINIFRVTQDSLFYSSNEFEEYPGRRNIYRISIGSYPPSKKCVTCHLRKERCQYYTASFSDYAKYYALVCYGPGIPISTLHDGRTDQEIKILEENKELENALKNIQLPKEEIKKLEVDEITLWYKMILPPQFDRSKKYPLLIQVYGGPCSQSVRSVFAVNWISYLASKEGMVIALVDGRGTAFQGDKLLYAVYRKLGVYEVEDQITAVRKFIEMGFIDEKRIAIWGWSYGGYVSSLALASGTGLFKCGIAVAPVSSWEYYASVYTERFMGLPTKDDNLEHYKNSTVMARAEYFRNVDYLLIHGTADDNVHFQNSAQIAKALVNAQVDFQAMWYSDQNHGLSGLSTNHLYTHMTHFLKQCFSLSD
Assay: competition (excess unlabeled FL) against FL-L1-FITC, FL-L1-S0456 and […]mTc-FL-L3 binding on HEK293-hFAP cells
Assay type: cell-based

Compound: C[C@H](NC(=O)c1ccnc(CN)c1)C(=O)N1CC(F)(F)C[C@H]1C#N [compound 8, FL]
- competition (excess unlabeled FL) against FL-L1-FITC, FL-L1-S0456 and 99mTc-FL-L: Blocking of FL-L1-FITC related fluorescence by unlabeled FAP ligand (FL), indicated FAP mediated uptake of FL-L1-FITC in HEK293-hFAP cells

— publication PMC7254991, “Design and validation of fibroblast activation protein alpha targeted imaging and therapeutic agents” (Theranostics, 2020)
